Measured values taken from article PMC6321233, “Cysteines and Disulfide-Bridged Macrocyclic Mimics of Teixobactin Analogues and Their Antibacterial Activity Evaluation against Methicillin-Resistant Staphylococcus Aureus (MRSA)” (Pharmaceutics, 2018).
In brackets after ≈: the same amount, converted by molar mass. Read-outs that look alike come from different tables or passages of the source.

Key:
MRSA = settings: introduction, strain not named; cited from earlier work
Source text: Brimble et al. have also reported on the synthesis and antibacterial activity of teixobactin analogues by replacing L-allo-enduracididine with isosteres. Furthermore, teixobactin analogues with lipid tails were reported by Jamieson et al ...

MRSA ATCC 33591 = settings: reference peptides marked with superscript 12 in Table 1; cited from earlier work
Source text: MIC: Minimum Inhibitory Concentration in µg/mL; all the MIC runs in triplicate. (-) = Not evaluated. | column: MRSA ATCC 33591

MRSA ATCC 700699 [1] = test: MIC, broth microdilution, MRSA ATCC 700699; type: cell-based, Staphylococcus aureus; settings: Mueller Hinton broth, 37 °C, 24 h, peptides in DMSO with 0.002% polysorbate 80, 128-0.25 µg/mL two-fold dilutions, lowest concentration with no visible growth, runs in triplicate
Method: (§1) For minimum inhibitory concentration (MIC) assays, all peptides were dissolved in DMSO containing 0.002% polysorbate 80. Bacteria was grown in Mueller Hinton broth (Oxoid) in triplicate. All incubations were at 37 °C. Dilutions were carried out in triplicate, and 100 µL of autoclaved Mueller Hinton broth was added to wells 2–11 in a 96-well plate. 200 µL of the peptide was added to well one at a concentration of 128 µg/mL. 100 µL of peptide in well one was taken up and pipetted into well two. The mixture was then mixed via pipetting before 100 µL was taken up and pipetted into well three. This process was repeated up to well 10. Once the peptide was added to well 10, 100 µL was taken up and then discarded, ensuring that well 11 had no peptide present. Thus, the concentrations (in µg/mL) were: 128, 64, 32, 16, 8, 4, 2, 1, 0.5, 0.25, and 0 (no peptide present). Each well was then inoculated with 100 µL of bacteria that had been diluted to an OD 600 nm of 0.1. This was repeated three times. The 96-well plates were then incubated at 37 °C for 24 h. […]
(§2) Antibacterial activity of the teixobactin analogues was assessed against Methicillin-resistant Staphylococcus aureus (MRSA ATCC 33591, MRSA ATCC […]) and Methicillin-sensitive Staphylococcus aureus. The minimum inhibitory concentration was measured using the broth microdiluation method (see Experimental Section 2.4). […]

S. aureus ATCC 29213 [2] = test: MIC, broth microdilution, Methicillin-sensitive S. aureus ATCC 29213; type: cell-based, Staphylococcus aureus; settings: Mueller Hinton broth, 37 °C, 24 h, peptides in DMSO with 0.002% polysorbate 80, 128-0.25 µg/mL two-fold dilutions, no visible growth, runs in triplicate
Method: as §1, §2

MRSA ATCC 700699 [3] = settings: reference peptide marked with superscript 12 in Table 1; cited from earlier work
Source text: MIC: Minimum Inhibitory Concentration in µg/mL; all the MIC runs in triplicate. (-) = Not evaluated. | column: MRSA ATCC 700699

S. aureus ATCC 29213 [4] = settings: reference peptide marked with superscript 12 in Table 1; cited from earlier work
Source text: MIC: Minimum Inhibitory Concentration in µg/mL; all the MIC runs in triplicate. (-) = Not evaluated. | column: S. aureus ATCC 29213

Compound	activity against MRSA compared with teixobactin (in words) (MRSA)	MIC: Minimum Inhibitory Concentration, MRSA ATCC 33591 (MRSA ATCC 33591) [µg/mL]	further results
Ile10-teixobactin	to the same extent as teixobactin	–	–
Teixobactin	–	0.25	–
CN[C@H](CC(C)C)C(=O)N[C@H]1C(=O)N[C@@H](CC(N)=O)C(=O)N[C@H]2C(=O)N[C@H]3C(=O)N[C@H](C(=O)N[C@H](C(=O)O)c4cc(O)cc(O)c4-c4cc3ccc4O)[C@H](O)c3ccc(c(Cl)c3)Oc3cc2cc(c3O[C@@H]2O[C@H](CO)[C@@H](O)[C@H](O)[C@H]2O[C@H]2C[C@](C)(N)[C@H](O)[C@H](C)O2)Oc2ccc(cc2Cl)[C@H]1O [Vancomycin]	–	–	MIC: Minimum Inhibitory Concentration, MRSA ATCC 700699 (MRSA ATCC 700699 [1]): 2 µg/mL (≈ 1.38 µM); MIC: Minimum Inhibitory Concentration, S. aureus ATCC 29213 (S. aureus ATCC 29213 [2]): 4 µg/mL (≈ 2.76 µM)
Leu10-teixobactin	to the same extent as teixobactin	0.25	MIC: Minimum Inhibitory Concentration, MRSA ATCC 700699 (MRSA ATCC 700699 [3]): 0.25 µg/mL; MIC: Minimum Inhibitory Concentration, S. aureus ATCC 29213 (S. aureus ATCC 29213 [4]): 0.062 µg/mL
